Measurements taken from patent US12453776B2, “Lipids and compositions for the delivery of therapeutics” (ARBUTUS BIOPHARMA CORPORATION, priority 2008, dated 2025).

Test system: Factor VII
Test: In vivo FVII knockdown by FVII siRNA lipid formulations (chromogenic Factor VII assay, serum 24 h after i.v. dosing)
Settings: female C57Bl/6 mice, i.v. tail vein, cationic lipid/DSPC/cholesterol/PEG-lipid 40/10/40/10 with FVII siRNA, no unit at the values, method gives ED50 in mg/kg
Protocol: Cationic lipid containing particles were made using the preformed vesicle method. Cationic lipid, DSPC, cholesterol and PEG-lipid were solubilised in ethanol at a molar ratio of 40/10/40/10, respectively. The lipid mixture was added to an aqueous buffer (50 mM citrate, pH 4) with mixing to a final ethanol and lipid concentration of 30% (vol/vol) and 6.1 mg/mL respectively and allowed to equilibrate at room temperature for 2 min before extrusion. The hydrated lipids were extruded through two stacked 80 nm pore-sized filters (Nuclepore) at 22° C. using a Lipex Extruder (Northern Lipids, Vancouver, BC) until a vesicle diameter of 70-90 nm, as determined by Nicomp analysis, was obtained. This generally required 1-3 passes.
The FVII siRNA (solubilised in a 50 mM citrate, pH 4 aqueous solution containing 30% ethanol) was added to the vesicles, pre-equilibrated to 35° C., at a rate of ˜5 mL/min with mixing. […] The final encapsulated siRNA-to-lipid ratio was determined after removal of unencapsulated siRNA using size-exclusion spin columns or ion exchange spin columns.
Test formulations were initially assessed for their FVII knockdown in female 7-9 week old, 15-25 g, female C57Bl/6 mice at 0.1, 0.3, 1.0 and 5.0 mg/kg with 3 mice per treatment group. […] Mice were weighed and the appropriate dosing volumes calculated (10 μl/g body weight). […]

| SMILES | ED50 (dose resulting in a 50% reduction in plasma FVII levels compared to control animals) [mg/kg] |
| --- | --- |
| CCCCC/C=C\C/C=C\CCCCCCCCC(CCCCCCCC/C=C\C/C=C\CCCCC)OC(=O)CCCN(CC)CC [DLin-M-C3-DEA] | 0.3 |
| CCCCC/C=C\C/C=C\CCCCCCCCC(CCCCCCCC/C=C\C/C=C\CCCCC)OC(=O)CCCN(C(C)C)C(C)C [DLin-M-C3-DIPA] | 4.5 |
